Data: ChEMBL document CHEMBL5143564, “PES derivative PESA is a potent tool to globally profile cellular targets of PES” (Bioorg Med Chem Lett, 2022)
Activity calls are given as the source filed them.

Assays:
[1] = target: T1, Thioredoxin-dependent peroxide reductase, mitochondrial (Homo sapiens) (UniProt P30048); assay: Binding affinity to PRDX3 in human MDA-MB-453 cells measured after 6 hrs by pull-down assay; assay type: cell-based; settings: dose <= 20.0 µM, DDE = dose-dependent effect
T1 sequence (whole entry): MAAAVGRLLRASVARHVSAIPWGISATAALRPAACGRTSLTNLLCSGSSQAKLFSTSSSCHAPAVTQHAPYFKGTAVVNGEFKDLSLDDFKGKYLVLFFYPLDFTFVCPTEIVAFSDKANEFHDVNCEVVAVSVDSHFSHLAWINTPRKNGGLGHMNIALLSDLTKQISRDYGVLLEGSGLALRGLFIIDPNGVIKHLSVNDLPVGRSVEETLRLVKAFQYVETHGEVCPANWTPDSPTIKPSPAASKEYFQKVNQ

[2] = target: T2, Protein disulfide-isomerase A4 (Homo sapiens) (UniProt P13667); assay: Binding affinity to PDIA4 in human MDA-MB-453 cells measured after 6 hrs by pull-down assay; assay type: cell-based; settings: dose <= 20.0 µM, DDE = dose-dependent effect
T2 sequence (whole entry): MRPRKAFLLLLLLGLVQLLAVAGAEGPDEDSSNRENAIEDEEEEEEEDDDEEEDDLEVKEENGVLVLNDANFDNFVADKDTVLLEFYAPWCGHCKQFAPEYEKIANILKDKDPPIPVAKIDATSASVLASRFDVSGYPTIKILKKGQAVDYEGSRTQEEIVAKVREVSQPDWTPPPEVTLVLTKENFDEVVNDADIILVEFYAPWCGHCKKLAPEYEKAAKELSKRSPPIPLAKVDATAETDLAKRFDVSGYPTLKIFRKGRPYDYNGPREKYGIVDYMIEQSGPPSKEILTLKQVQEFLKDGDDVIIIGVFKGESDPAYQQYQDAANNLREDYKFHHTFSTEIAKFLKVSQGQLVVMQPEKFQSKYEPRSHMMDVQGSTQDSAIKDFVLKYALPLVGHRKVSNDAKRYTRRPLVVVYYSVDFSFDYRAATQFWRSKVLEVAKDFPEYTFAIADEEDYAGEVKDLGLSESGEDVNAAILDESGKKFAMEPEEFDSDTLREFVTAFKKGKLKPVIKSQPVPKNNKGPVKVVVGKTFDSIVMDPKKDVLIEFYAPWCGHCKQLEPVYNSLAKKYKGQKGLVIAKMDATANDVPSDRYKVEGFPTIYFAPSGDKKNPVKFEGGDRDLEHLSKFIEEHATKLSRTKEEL

[3] = test system: DOHH-2; assay: Induction of apoptosis in human DOHH-2 cells assessed as increase in cleaved caspase-3 expression at 0.5 to 8 uM measured after 24 hrs by Western blot analysis; assay type: functional, cell-based; settings: dose 0.5-8 µM
[4] = target: T3, Protein disulfide-isomerase A6 (Homo sapiens) (UniProt Q15084); assay: Binding affinity to PDIA6 in human DOHH-2 cells by MS analysis; assay type: cell-based
T3 sequence (whole entry): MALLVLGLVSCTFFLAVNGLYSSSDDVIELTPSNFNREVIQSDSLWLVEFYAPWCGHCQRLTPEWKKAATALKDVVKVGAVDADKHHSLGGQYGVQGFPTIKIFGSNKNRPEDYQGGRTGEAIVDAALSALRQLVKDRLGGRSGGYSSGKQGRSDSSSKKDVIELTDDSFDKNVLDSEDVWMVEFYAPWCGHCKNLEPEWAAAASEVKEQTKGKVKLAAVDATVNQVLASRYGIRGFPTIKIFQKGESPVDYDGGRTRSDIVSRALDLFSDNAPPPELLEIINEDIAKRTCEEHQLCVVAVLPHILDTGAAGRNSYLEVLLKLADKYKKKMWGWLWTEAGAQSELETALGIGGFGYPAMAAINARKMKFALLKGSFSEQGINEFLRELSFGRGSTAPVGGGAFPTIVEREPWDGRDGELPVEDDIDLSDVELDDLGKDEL

[5] = target: T3, Protein disulfide-isomerase A6 (Homo sapiens); assay: Binding affinity to PDIA6 in human MDA-MB-453 cells measured after 6 hrs by pull-down assay; assay type: cell-based; settings: dose <= 20.0 µM, DDE = dose-dependent effect
[6] = target: T4, Plastin-2 (Homo sapiens) (UniProt P13796); assay: Binding affinity to plastin-2 in human MDA-MB-453 cells measured after 6 hrs by pull-down assay; assay type: cell-based; settings: dose <= 20.0 µM, DDE = dose-dependent effect
T4 sequence (whole entry): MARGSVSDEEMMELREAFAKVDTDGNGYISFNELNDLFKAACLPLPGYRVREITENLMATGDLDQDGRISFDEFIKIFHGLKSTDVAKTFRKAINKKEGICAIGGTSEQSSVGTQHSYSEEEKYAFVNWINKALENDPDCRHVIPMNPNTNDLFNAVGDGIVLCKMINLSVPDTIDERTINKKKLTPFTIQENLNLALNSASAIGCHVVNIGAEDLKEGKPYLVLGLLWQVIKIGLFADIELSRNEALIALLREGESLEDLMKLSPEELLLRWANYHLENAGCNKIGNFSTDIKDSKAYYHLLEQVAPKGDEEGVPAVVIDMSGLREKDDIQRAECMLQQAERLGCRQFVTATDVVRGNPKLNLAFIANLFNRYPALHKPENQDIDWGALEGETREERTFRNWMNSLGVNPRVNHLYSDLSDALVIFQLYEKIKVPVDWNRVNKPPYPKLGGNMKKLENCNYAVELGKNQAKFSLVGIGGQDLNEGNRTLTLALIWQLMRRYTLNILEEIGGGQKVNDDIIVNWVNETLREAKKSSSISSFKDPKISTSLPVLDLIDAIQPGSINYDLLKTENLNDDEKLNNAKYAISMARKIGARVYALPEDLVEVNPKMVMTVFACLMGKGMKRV

[7] = target: Tubulin beta (Homo sapiens) (UniProt P68371+Q9H4B7+Q13509+P04350+Q3ZCM7+P07437+Q13885+Q9BVA1+Q9BUF5+A6NNZ2); assay: Binding affinity to beta-tubulin in human DOHH-2 cells by MS analysis; assay type: cell-based
[8] = target: T5, Peroxiredoxin-2 (Homo sapiens) (UniProt P32119); assay: Binding affinity to PRDX2 in human DOHH-2 cells by MS analysis; assay type: cell-based
T5 sequence (whole entry): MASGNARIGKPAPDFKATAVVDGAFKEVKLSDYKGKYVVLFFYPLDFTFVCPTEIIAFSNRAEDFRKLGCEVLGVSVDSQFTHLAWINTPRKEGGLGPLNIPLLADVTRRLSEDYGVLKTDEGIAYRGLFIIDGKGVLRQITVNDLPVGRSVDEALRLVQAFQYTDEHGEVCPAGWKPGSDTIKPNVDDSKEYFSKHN

[9] = target: T5, Peroxiredoxin-2 (Homo sapiens); assay: Binding affinity to PRDX2 in human MDA-MB-453 cells measured after 6 hrs by pull-down assay; assay type: cell-based; settings: dose <= 20.0 µM, DDE = dose-dependent effect

Measured: Activity

C#Cc1cccc(C#CS(N)(=O)=O)c1
active: [1] Dde | [2] Dde | [3] | [4] | [5] Dde | [6] Dde | [7] | [8] | [9] Dde
